Reference: patent US20260062412A1, “NITROGEN-CONTAINING HETEROCYCLIC COMPOUND HAVING MYT1 INHIBITORY ACTIVITY” (CHUGAI SEIYAKU KABUSHIKI KAISHA, priority 2023, published 2026)

What follows are compounds tested against MYT1 protein (Homo sapiens (Human), UniProt Q99640) (assay: Test for binding to ATP binding site of MYT1 (Kinase Tracer 178 / Eu-Anti-GST antibody TR-FRET)). Settings: ATP binding site of MYT1, 30 minutes at room temperature.
MYT1 protein, sequence (Q99640 whole entry): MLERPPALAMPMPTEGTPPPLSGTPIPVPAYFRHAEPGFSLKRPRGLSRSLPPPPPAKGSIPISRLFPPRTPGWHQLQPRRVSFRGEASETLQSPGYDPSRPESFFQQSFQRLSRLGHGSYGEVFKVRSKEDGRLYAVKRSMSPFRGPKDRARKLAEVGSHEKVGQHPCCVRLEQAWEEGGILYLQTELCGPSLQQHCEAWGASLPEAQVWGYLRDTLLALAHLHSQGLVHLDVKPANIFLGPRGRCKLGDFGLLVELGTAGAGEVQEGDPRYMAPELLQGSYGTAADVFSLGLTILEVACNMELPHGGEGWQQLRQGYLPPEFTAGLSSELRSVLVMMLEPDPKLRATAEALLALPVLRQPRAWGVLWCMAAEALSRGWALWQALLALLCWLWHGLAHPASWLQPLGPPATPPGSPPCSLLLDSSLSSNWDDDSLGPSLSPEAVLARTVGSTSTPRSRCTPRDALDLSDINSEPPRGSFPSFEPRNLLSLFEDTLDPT

SMILES | IC50 [nM]
CCc1cc2c(-c3ccc(Cl)c4[nH]ncc34)c(N)c(=O)[nH]c2c2ccccc12 [Compound B38, 3-Amino-4-(7-chloro-1H-indazol-4-yl)-6-ethyl-1H-benzo[h]quinolin-2-one] | 4.6
COCC(F)(F)COc1cc2c(-c3ccc(F)c4[nH]ncc34)c(N)c(=O)[nH]c2c2cccnc12 [Compound C26, 3-Amino-6-(2,2-difluoro-3-methoxypropoxy)-4-(7-fluoro-1H-indazol-4-yl)-1H-1,7-phenanthrolin-2-one] | 2.3
Nc1nccc(-c2c(N)c(=O)[nH]c3ccc(Cl)cc23)n1 [Compound A69, 3-Amino-4-(2-aminopyrimidin-4-yl)-6-chloro-1H-quinolin-2-one] | 2500
Cc1cc2c(-c3ccc(F)c4[nH]ncc34)c(N)c(=O)[nH]c2c2ccc(Cl)cc12 [Compound B15, 3-Amino-8-chloro-4-(7-fluoro-1H-indazol-4-yl)-6-methyl-1H-benzo[h]quinolin-2-one] | 8.6
Nc1c(-c2ccc(Cl)c3[nH]ncc23)c2cc(OCCC(F)F)c(Cl)cc2[nH]c1=O [Compound A9, 3-Amino-7-chloro-4-(7-chloro-1H-indazol-4-yl)-6-(3,3-difluoropropoxy)-1H-quinolin-2-one] | 3.9
Nc1c(-c2ccc(Cl)c3[nH]ncc23)c2cc(C(=O)NC3CC3)ccc2[nH]c1=O [Compound A37, 3-Amino-4-(7-chloro-1H-indazol-4-yl)-N-cyclopropyl-2-oxo-1H-quinoline-6-carboxamide] | 5.6
Nc1c(-c2ccc(F)c3[nH]ncc23)c2cc(N3C4COCC3C4)c3ncccc3c2[nH]c1=O [Compound C129, 3-Amino-4-(7-fluoro-1H-indazol-4-yl)-6-(3-oxa-6-azabicyclo[3.1.1]heptan-6-yl)-1H-1,7-one] | 3.3
Nc1c(-c2ccc(F)c3[nH]ncc23)c2cc(OC3CCC3)c3ncccc3c2[nH]c1=O [Compound C18, 3-Amino-6-cyclobutyloxy-4-(7-fluoro-1H-indazol-4-yl)-1H-1,7-phenanthrolin-2-one] | 2
Nc1c(-c2ccc(F)c3[nH]ncc23)c2cc(O[C@H]3C[C@@H](F)C3)c3ncccc3c2[nH]c1=O [Compound C28, 3-Amino-4-(7-fluoro-1H-indazol-4-yl)-6-((1s,3s)-3-fluorocyclobutoxy)-1,7-phenanthrolin-2(1H)-one] | 1.8
CS(=O)(=O)Nc1cccc(-c2c(N)c(=O)[nH]c3ccc(Cl)cc23)c1 [Compound A46, N-[3-(3-amino-6-chloro-2-oxo-1H-quinolin-4-yl)phenyl]methanesulfonamide] | 5900
C[C@H](Oc1cc2c(-c3ccc(F)c4[nH]ncc34)c(N)c(=O)[nH]c2c2cccnc12)C(F)(F)F [Compound C22, 3-Amino-4-(7-fluoro-1H-indazol-4-yl)-6-[(2S)-1,1,1-trifluoropropan-2-yl]oxy-1H-1,7-phenanthrolin-2-one] | 7.9
Cn1ccc(-c2c(N)c(=O)[nH]c3ccc(Cl)cc23)cc1=O [Compound A52, 3-Amino-6-chloro-4-(1-methyl-2-oxopyridin-4-yl)-1H-quinolin-2-one] | 4400
C[C@@H](Oc1cc2c(-c3ccc(F)c4[nH]ncc34)c(N)c(=O)[nH]c2c2cccnc12)C(F)(F)F [Compound C27, 3-Amino-4-(7-fluoro-1H-indazol-4-yl)-6-[(2R)-1,1,1-trifluoropropan-2-yl]oxy-1H-1,7-phenanthrolin-2-one] | 4.4
CC(O)c1ccc2[nH]c(=O)c(N)c(-c3ccc(Cl)c4[nH]ncc34)c2c1 (centres unmarked) [Compound A32, 3-Amino-4-(7-chloro-1H-indazol-4-yl)-6-(1-hydroxyethyl)-1H-quinolin-2-one] | 16
N#C[C@H]1C[C@H](Oc2cc3c(-c4ccc(F)c5[nH]ncc45)c(N)c(=O)[nH]c3c3cccnc23)C1 [Compound C31, (1r,3r)-3-[[3-Amino-4-(7-fluoro-1H-indazol-4-yl)-2-oxo-1H-1,7-phenanthrolin-6-yl]oxy]cyclobutane-1-carbonitrile] | 4.3
Nc1c(-c2ccc(F)c3[nH]ncc23)c2cc(OCC3(C(F)(F)F)CC3)c3ncccc3c2[nH]c1=O [Compound C44, 3-Amino-4-(7-fluoro-1H-indazol-4-yl)-6-[[1-(trifluoromethyl)cyclopropyl]methoxy]-1H-1,7-one] | 5.1
Cc1nc2[nH]c(=O)c(N)c(-c3ccc(Cl)c4[nH]ncc34)c2cc1O[C@H]1C[C@H](C#N)C1 [Compound A16, (1r,3r)-3-[[6-Amino-5-(7-chloro-1H-indazol-4-yl)-2-methyl-7-oxo-8H-1,8-naphthyridine-3-yl]oxy]cyclobutane-1-carbonitrile] | 5

Results, then the compound that gave them:

IC50 [nM] | SMILES
8.6 | Nc1c(-c2ccc(F)c3[nH]ncc23)c2cc(CCC(F)(F)F)c3ncccc3c2[nH]c1=O [Compound C161, 3-Amino-4-(7-fluoro-1H-indazol-4-yl)-6-(3,3,3-trifluoropropyl)-1H-1,7-phenanthrolin-2-one]
1.2 | Cc1cc2c(-c3ccc(F)c4[nH]ncc34)c(N)c(=O)[nH]c2c2scnc12 [Compound K2, 7-Amino-6-(7-fluoro-1H-indazol-4-yl)-4-methyl-9H-[1,3]thiazolo[4,5-h]quinolin-8-one]
7.9 | Cc1cc2c(-c3ccc(F)c4[nH]ncc34)c(N)c(=O)[nH]c2c2nccnc12 [Compound G3, 8-Amino-7-(7-fluoro-1H-indazol-4-yl)-5-methyl-10H-pyrido[2,3-f]quinoxalin-9-one]
12 | Nc1c(-c2ccc(F)c3[nH]ncc23)c2cc(Br)c3ncc(F)cc3c2[nH]c1=O [Compound F1, 3-Amino-6-bromo-9-fluoro-4-(7-fluoro-1H-indazol-4-yl)-1H-1,7-phenanthrolin-2-one]
3.4 | Cc1c(C)c2c(-c3cc(F)c(F)c4[nH]ncc34)c(N)c(=O)[nH]c2c2cccnc12 [Compound C216, 3-Amino-4-(6,7-difluoro-1H-indazol-4-yl)-5,6-dimethyl-1H-1,7-phenanthrolin-2-one]
7.3 | Nc1c(-c2ccc(F)c3[nH]ncc23)c2cc(Br)c3cncnc3c2[nH]c1=O [Compound J1, 8-Amino-5-bromo-7-(7-fluoro-1H-indazol-4-yl)-10H-pyrido[3,2-h]quinazolin-9-one]
3.2 | Nc1c(-c2ccc(F)c3[nH]ncc23)c2cc(C3CC3)c3nccnc3c2[nH]c1=O [Compound G4, 8-Amino-5-cyclopropyl-7-(7-fluoro-1H-indazol-4-yl)-10H-pyrido[2,3-f]quinoxalin-9-one]
95 | CC(C)(C)C1CC(c2cc3c(-c4ccc(F)c5[nH]ncc45)c(N)c(=O)[nH]c3c3cccnc23)C1 (centres unmarked) [Compound C173, 3-Amino-6-(3-tert-butylcyclobutyl)-4-(7-fluoro-1H-indazol-4-yl)-1H-1,7-phenanthrolin-2-one]
2.2 | COc1cc2c(-c3ccc(F)c4[nH]ncc34)c(N)c(=O)[nH]c2c2nccnc12 [Compound G10, 8-Amino-7-(7-fluoro-1H-indazol-4-yl)-5-methoxy-10H-pyrido[2,3-f]quinoxalin-9-one]
5.7 | Nc1c(-c2cc(F)c(F)c3[nH]ncc23)c2cc(C3CCC3)c3ncccc3c2[nH]c1=O [Compound C201, 3-Amino-6-cyclobutyl-4-(6,7-difluoro-1H-indazol-4-yl)-1H-1,7-phenanthrolin-2-one]
8.1 | CC(C)CCc1cc2c(-c3ccc(F)c4[nH]ncc34)c(N)c(=O)[nH]c2c2cccnc12 [Compound C107, 3-Amino-4-(7-fluoro-1H-indazol-4-yl)-6-(3-methylbutyl)-1H-1,7-phenanthrolin-2-one]
3.4 | Nc1c(-c2cc(F)c(F)c3[nH]ncc23)c2cc(OC(F)F)c3ncccc3c2[nH]c1=O [Compound C205, 3-Amino-4-(6,7-difluoro-1H-indazol-4-yl)-6-(difluoromethoxy)-1H-1,7-phenanthrolin-2-one]
2.6 | CC1(COc2cc3c(-c4ccc(F)c5[nH]ncc45)c(N)c(=O)[nH]c3c3cccnc23)CC(F)(F)C1 [Compound C52, 3-Amino-6-[(3,3-difluoro-1-methylcyclobutyl)methoxy]-4-(7-fluoro-1H-indazol-4-yl)-1H-1,7-one]
2.7 | Nc1c(-c2ccc(F)c3[nH]ncc23)c2cc(N3CCC(O)C3)c3ncccc3c2[nH]c1=O (centres unmarked) [Compound C116, 3-Amino-4-(7-fluoro-1H-indazol-4-yl)-6-(3-hydroxypyrrolidin-1-yl)-1H-1,7-phenanthrolin-2-one]
0.83 | COc1cc2c(-c3ccc(Cl)c4[nH]ncc34)c(N)c(=O)[nH]c2c2cccnc12 [Compound C74, 3-Amino-4-(7-chloro-1H-indazol-4-yl)-6-methoxy-1H-1,7-phenanthrolin-2-one]
0.53 | Nc1c(-c2ccc(F)c3[nH]ncc23)c2cc(C3CCN(C4COC4)CC3)c3cccnc3c2[nH]c1=O [Compound D27, 3-Amino-4-(7-fluoro-1H-indazol-4-yl)-6-[1-(oxetan-3-yl)piperidin-4-yl]-1H-1,10-phenanthrolin-2-one]
22 | Nc1c(-c2cc(F)c(F)c3[nH]ncc23)c2cc(Br)c3ncc(F)cc3c2[nH]c1=O [Compound F4, 3-Amino-6-bromo-4-(6,7-difluoro-1H-indazol-4-yl)-9-fluoro-1H-1,7-phenanthrolin-2-one]
3.1 | Nc1c(-c2ccc(F)c3[nH]ncc23)c2cc(NS(=O)(=O)C3CC3)c3cccnc3c2[nH]c1=O [Compound D17, N-[8-amino-7-(7-fluoro-1H-indazol-4-yl)-9-oxo-10H-1,10-phenanthrolin-5-yl]cyclopropanesulfonamide]
3.1 | Nc1c(-c2cc(F)c(F)c3[nH]ncc23)c2cc(Cl)c3ncccc3c2[nH]c1=O [Compound C198, 3-Amino-6-chloro-4-(6,7-difluoro-1H-indazol-4-yl)-1H-1,7-phenanthrolin-2-one]
49 | Nc1c(-c2ccnc3[nH]ncc23)c2cc(Br)c3ncccc3c2[nH]c1=O [Compound C81, 3-Amino-6-bromo-4-(1H-pyrazolo[3,4-b]pyridin-4-yl)-1H-1,7-phenanthrolin-2-one]
0.87 | N#C[C@H]1C[C@H](Oc2cc3c(-c4cc(F)c(F)c5[nH]ncc45)c(N)c(=O)[nH]c3c3cccnc23)C1 [Compound C211, (1r,3r)-3-[[3-Amino-4-(6,7-difluoro-1H-indazol-4-yl)-2-oxo-1H-1,7-phenanthrolin-6-yl]oxy]cyclobutane-1-carbonitrile]
